In assay [1] the target is T1, CDK8/CyclinC (Homo sapiens, UniProt P49336).
T1 construct: purchased ProQinase, Freiburg, Germany
The experiment in a line: ADP-Glo Kinase Assay, CDK8/CyclinC. Further: ATP at apparent Km (53 µM). In kind it is biochemical. As to conditions: read-out: % inhibition at 1 μM CDK8/CyclinC. The procedure: (§1) Testing of the compounds described in this invention was carried out using the ADP-Glo™ Kinase Assay from Promega Corporation (Madison, Wis., USA).
(§2) The ADP-Glo™ Kinase Assay is a luminescent ADP detection assay to measure kinase activity by quantifying the amount of ADP produced during a kinase reaction. The kinase assay is performed in kinase assay buffer (5 mM MOPS, pH 7.5, 5 mM MgCl2, 0.4 mM EDTA, 1.5 mM DTT). Test samples initially dissolved in DMSO at 10 mM were diluted with the assay buffer to 1000 nM. A 30 μL volume/well of a mixture of substrates containing ATP (final ATP concentration in each kinase assay was equal to its apparent ATP Km).
(§3) The assay was performed in two steps: first, after the kinase reaction, an equal volume of ADP-Glo™ Reagent was added to terminate the kinase reaction and deplete the remaining ATP. Second, the Kinase Detection Reagent was added to simultaneously convert ADP to ATP and allowed the newly synthesized ATP to be measured using a luciferase/luciferin reaction. The luminescent signal generated was proportional to the ADP concentration produced and was correlated with kinase activity.
In general terms: ADP-Glo first removes unused ATP, then detects ADP through luciferase.

Assay [2] concerns the target T2, CDK9/CyclinT (Homo sapiens, UniProt P50750).
T2 construct: purchased Proqinase, Freiburg, Germany
The experiment in a line: ADP-Glo Kinase Assay, CDK9/CyclinT. Further: ATP at apparent Km (26 µM). In kind it is biochemical. The following applies: read-out: % inhibition at 1 μM CDK9/CyclinT. The procedure:
as §1, §2, §3

The target in assay [3] is T3, CDK2/CyclinE (Homo sapiens, UniProt P24941).
T3 construct: purchased Millipore, Billerica, Mass., USA
The assay is described as follows: ADP-Glo Kinase Assay, CDK2/CyclinE. In kind it is biochemical. The following applies: read-out: % inhibition at 1 μM CDK2/CyclinE. The procedure: as §1, §2, §3

Assay [4] has as its system HCT116 cells. The assay is described as follows: MTS viability assay, HCT116. In kind it is cell-based. As to conditions: Homo sapiens, HCT-116, HCT116, 72 hour incubation, read-out: IC50 [μM] HCT116 ED50. The text has this:
(§4) The viability of CDK8 expressing cells can be evaluated using a tetrazolium salt reduction cell-based assay. In viable cells this colorimetric assay can measure mitochondrial reduction of a tetrazolium component (MTS) into an […] formazan product. For MTS viability assay, human colon cancer cell lines were used (SW480 and HCT116 cell lines), containing elevated levels of CDK8 protein and highly dependent on its expression for proliferation [see, Firenstein et al. Nature 455 (25):547-551, (2008)]. These cell lines were used to determine the activity of the compounds provided herein to inhibit CDK8 in intact cells. Human tumor cell lines were obtained from ATCC (Rockville Md. USA). In each case, and by methods known to those practiced in the art of cell culture, vaiability was measured after 72 hour incubation with the compounds provided herein using a standard MTS protocol (CellTiter 96® AQueous Non-Radioactive Cell Proliferation Assay).
(§5) Briefly, cells were plated at 10,000-20,000 cells per well in DMEM medium supplemented with 10% fetal bovine serum. The compound plate was set up by aliquoting into column 1 of a 96-well plate, the negative control (DMSO), aliquoting into column 12 the positive control, and titrating the test compound in serial dilutions into columns 2-11. An aliquot from each well of the compound plate was transferred to the plated cells and then incubated at 37° C. in 5% CO2. 20 μL of MTS tetrazolium was added to each well of optical plate and the cells were incubated at 37° C. in 5% CO2 for 2 hours. The absorbance was measured at 490 nm using a microplate reader.
A general note: Formazan colour is commonly taken as a measure of viable cells.

Assay [5] relates to SW480 cells. The assay is described as follows: MTS viability assay, SW480. As to conditions: Homo sapiens, SW480, 72 hour incubation, read-out: IC50 [μM] SW-480 ED50. In kind it is cell-based.
Text: as §4, §5

Assay [6] has as its target T4, CDK1/CyclinB (Homo sapiens, UniProt P06493).
T4 construct: purchased Millipore, Billerica, Mass., USA
The experiment in a line: ADP-Glo Kinase Assay, CDK1/CyclinB. Further: ATP at apparent Km (20 µM). The assay is classed as biochemical. The following applies: read-out: % inhibition at 1 μM CDK1/CyclinB. The procedure: Testing of the compounds described in this invention was carried out using the ADP-Glo™ Kinase Assay from Promega Corporation (Madison, Wis., USA). […] The ADP-Glo™ Kinase Assay is a luminescent ADP detection assay to measure kinase activity by quantifying the amount of ADP produced during a kinase reaction. The kinase assay is performed in kinase assay buffer (5 mM MOPS, pH 7.5, 5 mM MgCl2, 0.4 mM EDTA, 1.5 mM DTT). Test samples initially dissolved in DMSO at 10 mM were diluted with the assay buffer to 1000 nM. A 30 μL volume/well of a mixture of substrates containing ATP (final ATP concentration in each kinase assay was equal to its apparent ATP Km). […] The assay was performed in two steps: first, after the kinase reaction, an equal volume of ADP-Glo™ Reagent was added to terminate the kinase reaction and deplete the remaining ATP. Second, the Kinase Detection Reagent was added to simultaneously convert ADP to ATP and allowed the newly synthesized ATP to be measured using a luciferase/luciferin reaction. The luminescent signal generated was proportional to the ADP concentration produced and was correlated with kinase activity.

Assay [7] deals with T5, CDK5/p25 (Homo sapiens, UniProt Q00535).
T5 construct: purchased Millipore, Billerica, Mass., USA
T5 sequence (Q00535 whole entry): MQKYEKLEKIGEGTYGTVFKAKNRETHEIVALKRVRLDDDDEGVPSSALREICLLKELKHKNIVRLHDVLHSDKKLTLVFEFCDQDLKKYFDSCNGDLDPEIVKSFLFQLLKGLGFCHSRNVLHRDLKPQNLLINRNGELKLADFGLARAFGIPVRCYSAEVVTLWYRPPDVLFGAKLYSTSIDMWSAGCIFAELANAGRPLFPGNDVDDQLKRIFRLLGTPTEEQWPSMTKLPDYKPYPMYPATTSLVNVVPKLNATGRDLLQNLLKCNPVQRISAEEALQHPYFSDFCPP
T5 sequence (Q15078 99-307 partner limits assumed): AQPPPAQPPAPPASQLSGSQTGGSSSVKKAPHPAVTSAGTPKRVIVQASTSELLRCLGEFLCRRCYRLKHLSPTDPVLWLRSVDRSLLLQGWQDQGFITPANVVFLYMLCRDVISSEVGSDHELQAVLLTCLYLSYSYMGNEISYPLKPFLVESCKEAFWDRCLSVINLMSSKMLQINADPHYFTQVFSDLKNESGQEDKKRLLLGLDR
The experiment in a line: ADP-Glo Kinase Assay, CDK5/p25. Further: ATP at apparent Km (12 µM). The assay is classed as biochemical. As to conditions: read-out: % inhibition at 1 μM CDK5/p25. The protocol:
as §1, §2, §3

Assay [8] concerns the target T6, CDK7/CyclinH/MAT1 (Homo sapiens, UniProt P50613).
T6 construct: purchased Millipore, Billerica, Mass., USA
The experiment in a line: ADP-Glo Kinase Assay, CDK7/CyclinH/MAT1. The assay is classed as biochemical. As to conditions: read-out: % inhibition at 1 μM CDK7/CyclinH/MAT1. The procedure: as §1, §2, §3

SMILES strings stand for the structures.

The term IC50 denotes the concentration needed to halve the response being measured.

T1 sequence (P49336 whole entry): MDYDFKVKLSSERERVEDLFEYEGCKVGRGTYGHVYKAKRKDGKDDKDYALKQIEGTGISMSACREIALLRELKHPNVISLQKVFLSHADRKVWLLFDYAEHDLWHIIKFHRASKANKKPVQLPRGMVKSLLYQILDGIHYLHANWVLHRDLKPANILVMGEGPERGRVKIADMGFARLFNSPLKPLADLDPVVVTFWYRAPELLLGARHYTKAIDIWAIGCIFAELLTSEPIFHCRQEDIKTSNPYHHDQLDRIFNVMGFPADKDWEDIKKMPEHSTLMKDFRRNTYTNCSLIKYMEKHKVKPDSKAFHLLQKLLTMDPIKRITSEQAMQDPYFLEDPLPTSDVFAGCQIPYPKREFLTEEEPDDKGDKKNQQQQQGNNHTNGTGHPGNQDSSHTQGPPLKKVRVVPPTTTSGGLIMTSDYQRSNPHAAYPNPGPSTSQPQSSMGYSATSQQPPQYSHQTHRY
T1 sequence (P24863 whole entry partner): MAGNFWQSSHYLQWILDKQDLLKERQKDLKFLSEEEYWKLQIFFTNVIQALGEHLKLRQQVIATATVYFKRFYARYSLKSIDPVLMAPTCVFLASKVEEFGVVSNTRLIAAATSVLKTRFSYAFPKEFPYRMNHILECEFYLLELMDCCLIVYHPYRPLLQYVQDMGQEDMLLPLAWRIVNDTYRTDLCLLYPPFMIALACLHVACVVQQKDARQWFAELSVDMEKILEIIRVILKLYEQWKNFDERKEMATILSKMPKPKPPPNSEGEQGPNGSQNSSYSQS
T4 sequence (P06493 whole entry): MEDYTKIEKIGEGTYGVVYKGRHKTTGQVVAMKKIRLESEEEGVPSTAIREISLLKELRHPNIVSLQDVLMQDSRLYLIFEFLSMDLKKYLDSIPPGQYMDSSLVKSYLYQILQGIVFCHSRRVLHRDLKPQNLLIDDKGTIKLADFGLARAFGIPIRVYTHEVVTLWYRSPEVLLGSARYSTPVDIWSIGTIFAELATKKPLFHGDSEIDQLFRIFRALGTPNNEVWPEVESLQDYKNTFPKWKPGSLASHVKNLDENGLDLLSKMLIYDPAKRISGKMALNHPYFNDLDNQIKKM
T4 sequence (P14635 whole entry partner): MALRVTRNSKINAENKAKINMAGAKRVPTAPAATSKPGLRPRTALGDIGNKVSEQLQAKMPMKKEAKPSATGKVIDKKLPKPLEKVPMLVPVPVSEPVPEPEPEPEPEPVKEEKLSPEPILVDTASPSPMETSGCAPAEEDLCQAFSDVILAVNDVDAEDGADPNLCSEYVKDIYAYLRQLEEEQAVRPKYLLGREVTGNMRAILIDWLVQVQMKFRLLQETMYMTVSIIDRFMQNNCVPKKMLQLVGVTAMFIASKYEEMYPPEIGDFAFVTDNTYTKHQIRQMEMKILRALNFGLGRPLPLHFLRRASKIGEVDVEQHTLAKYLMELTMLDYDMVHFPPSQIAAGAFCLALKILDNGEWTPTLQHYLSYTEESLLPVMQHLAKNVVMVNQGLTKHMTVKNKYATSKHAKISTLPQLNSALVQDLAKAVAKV
T2 sequence (P50750 whole entry): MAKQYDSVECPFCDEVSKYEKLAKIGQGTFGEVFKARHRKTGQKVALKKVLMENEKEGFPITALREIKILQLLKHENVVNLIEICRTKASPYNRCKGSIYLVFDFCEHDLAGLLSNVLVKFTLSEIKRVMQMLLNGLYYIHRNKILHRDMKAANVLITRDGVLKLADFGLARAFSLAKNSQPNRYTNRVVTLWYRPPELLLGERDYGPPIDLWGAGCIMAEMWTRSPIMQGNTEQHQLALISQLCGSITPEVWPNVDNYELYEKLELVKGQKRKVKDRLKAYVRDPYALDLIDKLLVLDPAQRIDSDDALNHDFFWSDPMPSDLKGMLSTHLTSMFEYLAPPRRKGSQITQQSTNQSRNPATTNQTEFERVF
T2 sequence (O60563 whole entry partner): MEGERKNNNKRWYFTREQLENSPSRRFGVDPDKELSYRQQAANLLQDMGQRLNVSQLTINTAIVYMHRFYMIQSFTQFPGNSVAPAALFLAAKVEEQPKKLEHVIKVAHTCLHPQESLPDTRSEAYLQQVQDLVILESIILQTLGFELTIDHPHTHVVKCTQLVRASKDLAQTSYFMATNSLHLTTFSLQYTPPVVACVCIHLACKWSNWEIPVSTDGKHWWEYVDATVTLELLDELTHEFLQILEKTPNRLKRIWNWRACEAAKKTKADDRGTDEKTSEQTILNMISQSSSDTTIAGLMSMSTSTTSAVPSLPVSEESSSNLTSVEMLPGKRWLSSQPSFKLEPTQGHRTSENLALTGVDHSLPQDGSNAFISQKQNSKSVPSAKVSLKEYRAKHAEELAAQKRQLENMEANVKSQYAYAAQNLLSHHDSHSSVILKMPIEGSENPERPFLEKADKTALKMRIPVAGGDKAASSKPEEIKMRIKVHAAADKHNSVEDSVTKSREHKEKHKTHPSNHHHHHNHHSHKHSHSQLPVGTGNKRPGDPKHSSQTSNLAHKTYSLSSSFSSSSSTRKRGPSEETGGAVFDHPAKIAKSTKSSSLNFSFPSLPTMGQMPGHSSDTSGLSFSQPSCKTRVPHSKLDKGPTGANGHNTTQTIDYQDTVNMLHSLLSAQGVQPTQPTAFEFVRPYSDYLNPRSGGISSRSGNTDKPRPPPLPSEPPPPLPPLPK
T6 sequence (P50613 whole entry): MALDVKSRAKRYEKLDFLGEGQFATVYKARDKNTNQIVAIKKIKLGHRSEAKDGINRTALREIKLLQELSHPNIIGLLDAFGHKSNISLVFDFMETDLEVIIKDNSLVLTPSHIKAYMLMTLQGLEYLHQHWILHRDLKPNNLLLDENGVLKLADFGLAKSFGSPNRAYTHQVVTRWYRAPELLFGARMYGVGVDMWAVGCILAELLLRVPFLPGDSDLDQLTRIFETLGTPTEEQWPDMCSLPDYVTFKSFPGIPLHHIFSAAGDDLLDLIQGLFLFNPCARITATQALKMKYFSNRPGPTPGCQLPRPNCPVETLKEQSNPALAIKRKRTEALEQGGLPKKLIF
T6 sequence (P51946 whole entry partner): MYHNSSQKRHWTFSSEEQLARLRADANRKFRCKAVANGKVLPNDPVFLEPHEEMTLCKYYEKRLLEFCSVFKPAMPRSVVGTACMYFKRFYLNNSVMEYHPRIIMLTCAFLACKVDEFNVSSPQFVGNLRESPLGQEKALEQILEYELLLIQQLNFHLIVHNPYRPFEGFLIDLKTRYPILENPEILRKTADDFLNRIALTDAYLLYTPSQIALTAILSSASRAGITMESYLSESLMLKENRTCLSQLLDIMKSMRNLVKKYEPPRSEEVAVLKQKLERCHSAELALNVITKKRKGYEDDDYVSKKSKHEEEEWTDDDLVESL
T6 sequence (P51948 whole entry partner): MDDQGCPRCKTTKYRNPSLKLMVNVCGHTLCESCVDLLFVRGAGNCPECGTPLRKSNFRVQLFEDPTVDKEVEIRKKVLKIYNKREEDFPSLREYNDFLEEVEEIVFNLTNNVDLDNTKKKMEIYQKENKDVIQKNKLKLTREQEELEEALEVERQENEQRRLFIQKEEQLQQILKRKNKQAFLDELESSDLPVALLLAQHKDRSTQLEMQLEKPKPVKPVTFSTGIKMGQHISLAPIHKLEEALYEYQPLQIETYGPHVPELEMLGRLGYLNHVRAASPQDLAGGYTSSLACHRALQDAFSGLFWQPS

On to `NC1CCN(c2nc3c(Br)c(Br)c(Br)c4c3n2CCC4)CC1` [Example 1AG], for which the inhibition at 1 µM in assay [1] was determined as 82%; in assay [2] it was 42%; in assay [3], 33%. For the same compound, the IC50 in assay [4] stood at 1.3 µM; in assay [5], 0.5 µM.

Take `Cc1c(Br)c(Br)c2c3c1nc(N1CC[C@@H](N)C1)n3CCC2` [Example 1AK]: the inhibition at 1 µM amounted to 93% in assay [1], 2% in assay [2] and 0% in assay [3]. For the same compound, the results for the half-inhibitory concentration (IC50) in assay [4] and in assay [5] were 1.7 µM and 1.8 µM, respectively.

Regarding `Cc1c(Br)c2c3c(nc(N4CCNCC4)n3CCC2)c1Br` [Example 1AX], the inhibition at 1 µM was determined as 70% in assay [1], 7% in assay [2], 7% in assay [6] and 1% in assay [3]. In addition, in assay [4], the IC50 worked out at 1.5 µM.

In the case of `NCCCNc1nc2c(Br)c(Br)c(Br)c3c2n1CCC3` [Example 1C], the inhibition at 1 µM in assay [1] was 52%; in assay [2], 9%; in assay [6], 0%; in assay [3] it was 8%.

Turning to `CC1CNCCN1c1nc2c(Br)c(Br)c(Br)c3c2n1CCC3` (stereo not shown) [Example 1E], the inhibition at 1 µM in assay [1] turned out to be 89%; in assay [2], 20%; in assay [3], 2%. The IC50 was 1.9 µM in assay [4] and 2.7 µM in assay [5].

With `N[C@H]1CCN(c2nc3c(Br)c(Br)c(Br)c4c3n2CCC4)C1` [Example 1G], the inhibition at 1 µM in assay [1] was 96%; in assay [2], 45%; in assay [3], 29%. Also, the IC50 amounted to 0.7 µM in assay [4] and 1.1 µM in assay [5].

For `Brc1c(Br)c2c3c(nc(NC4CCNC4)n3CCC2)c1Br` (stereo not shown) [Example 1L], the inhibition at 1 µM in assay [1] came to 81%; in assay [2], 9%; in assay [3], 19%. Besides, the 50% inhibitory concentration (IC50) amounted to 1.1 µM in assay [4] and 1.4 µM in assay [5].

In the case of `NC1CCCN(c2nc3c(Br)c(Br)c(Br)c4c3n2CCC4)CC1` (stereo not shown) [Example 1M], the figures for the inhibition at 1 µM in assay [1], in assay [2] and in assay [3] were 59%, 0% and 6%, respectively. Further, the IC50 in assay [4] was 1.1 µM; in assay [5], 1.5 µM.

Take `NCCNc1nc2c(I)c(Br)c(Br)c3c2n1CCC3` [Example 1W]: the inhibition at 1 µM in assay [1] was found to be 100%; in assay [2], 13%; in assay [6] it was 7%; in assay [3], 0%; in assay [7], 2%; in assay [8], 0%.

Take `OC1CCN(c2nc3c(Br)c(Br)c(Br)c4c3n2CCC4)CC1` [Example 3A, 1-(7,8,9-tribromo-5,6-dihydro-4H-imidazo[4,5,1-ij]quinolin-2-yl)piperidin-4-ol]: the inhibition at 1 µM worked out at 61% in assay [1]; 1% in assay [2]; 0% in assay [6]; 4% in assay [3]; 0% in assay [7]; 3% in assay [8].

For `C[C@H]1CN(c2nc3c(Br)c(Br)c(Br)c4c3n2CCC4)CCN1` [Example 3AA], the values for the inhibition at 1 µM in assay [1], in assay [2] and in assay [3] were 96%, 21% and 20%, respectively. Further, the IC50 turned out to be 0.4 µM in assay [4] and 1.3 µM in assay [5].

With `C[C@@H]1CN(c2nc3c(Br)c(Br)c(Br)c4c3n2CCC4)CCN1` [Example 3AB], the results for the inhibition at 1 µM in assay [1], in assay [2] and in assay [3] were 84%, 47% and 27%, respectively. Besides, the IC50 in assay [4] turned out to be 0.4 µM; in assay [5] it was 1.4 µM.

Consider `C[C@@H]1CN(c2nc3c(I)c(Br)c(Br)c4c3n2CCC4)CCN1` [Example 3AD], for which the figures for the inhibition at 1 µM in assay [1], in assay [2] and in assay [3] were 100%, 42% and 16%, respectively. Also, the IC50 in assay [4] was determined as 0.6 µM; in assay [5], 1.3 µM.

As to `CN1CCN(c2nc3c(I)c(Br)c(Br)c4c3n2CCC4)CC1` [Example 3AM], the inhibition at 1 µM was 100% in assay [1], 39% in assay [2] and 40% in assay [3]. Moreover, the IC50 came out at 2.8 µM in assay [4] and 4 µM in assay [5].

As for `Brc1c(Br)c2c3c(nc(N4CCCCC4)n3CCC2)c1Br` [Example 3D], the inhibition at 1 µM in assay [1] was 87%; in assay [2], 20%; in assay [6], 2%; in assay [3], 0%; in assay [7], 0%; in assay [8], 11%.

As for `Nc1nc2c(Br)c(Br)c(Br)c3c2n1CCC3` [Example 3J], the inhibition at 1 µM was 58% in assay [1]; 34% in assay [2]; 0% in assay [6]; 1% in assay [3]; 53% in assay [7]; 0% in assay [8].

With `CC1CCCN1c1nc2c(Br)c(Br)c(Br)c3c2n1CCC3` (stereo not shown) [Example 3R], the inhibition at 1 µM in assay [1] stood at 100%; in assay [2] it was 4%; in assay [6], 0%; in assay [3], 0%; in assay [7], 4%; in assay [8], 36%.

Take `C[C@H]1CN(c2nc3c(I)c(Br)c(Br)c4c3n2CCC4)CCN1` [Example 3T]: the inhibition at 1 µM in assay [1] was 90%; in assay [2], 21%; in assay [3] it was 17%. The half-maximal inhibitory concentration (IC50) in assay [4] worked out at 1.6 µM; in assay [5], 1.3 µM.

Turning to `CC1(C)CN(c2nc3c(I)c(Br)c(Br)c4c3n2CCC4)CCN1` [Example 3W], the inhibition at 1 µM in assay [1] was 92%; in assay [2], 10%; in assay [3], 8%. For the same compound, the 50% inhibitory concentration (IC50) in assay [4] was found to be 1.5 µM; in assay [5], 1.4 µM.

With `CN1CCC(c2nc3c(Br)c(Br)c(Br)c4c3n2CCC4)CC1` [Example 7B], the inhibition at 1 µM in assay [1] amounted to 88%; in assay [2] it was 6%; in assay [3] it was 14%. For the same compound, the values for the IC50 in assay [4] and in assay [5] were 2.6 µM and 6.3 µM, respectively.

With `N#Cc1c(Br)c(Br)c2c3c1nc(N1CCNCC1)n3CCC2` [Example 8B], the inhibition at 1 µM in assay [1] is 90%; in assay [2], 20%; in assay [3] it was 0%. Besides, the IC50 came to 1.7 µM in assay [4] and 4.1 µM in assay [5].

Source of the values: patent US9745299B2, “Substituted tricyclic benzimidazoles as kinase inhibitors” (SELVITA SA, priority 2012, dated 2017).
